≈ marks a conversion by molar mass, not a printed value. Calls of active or inactive are those of the source. The rule behind the calls is not given here.
Columns and labels:
[1] = system: 9KB; experiment: Cytotoxicity against human 9KB cells; format: functional, cell-based
[2] = system: P388; experiment: In vivo cytotoxicity against mouse P388 cells; format: functional, organism-based
[3] = system: P388; experiment: Cytotoxicity against mouse P388 cells; format: functional
[4] = Cytotoxicity against human 9KB5 cells; format: functional; conditions: read-out: ED50 (the source's name)

Row | Compound | Activity [1] | Activity [2] | Activity [3] | EC50 ([3]; read-out: ED50 (the source's name)) [µg/mL] | EC50 [4] [µg/mL]
1 | CC(=O)O[C@@H]1CC2=C(C(=O)OC2)[C@@]2(C)CCCC(C)(C)[C@H]12 | inactive | inactive | inactive | – | –
2 | CC(=O)O[C@@H]1[C@@H](O)C2=C(C(=O)OC2)[C@@]2(C)CCCC(C)(C)[C@H]12 | inactive | inactive | inactive | – | –
3 | CC(=O)O[C@@H]1C=C(C=O)[C@](O)(C=O)[C@@]2(C)CCCC(C)(C)[C@H]12 [CINNAMODIAL] | – | inactive | – | 2.2 (≈ 7.13 µM) | –
4 | CC(=O)O[C@@H]1C=C2C(=O)OC[C@]2(O)[C@@]2(C)CCCC(C)(C)[C@H]12 [CINNAMOSMOLIDE] | – | inactive | inactive | – | 1.2 (≈ 3.89 µM)
5 | CC1(C)CCC[C@]2(C)C3=C(COC3=O)[C@H](O)C[C@@H]12 | inactive | inactive | inactive | – | –
